# According to patent publication US11779597B2, “Method of treating Parkinson's and other neurodegenerative diseases” (Vector Vitale IP LLC, priority 2019, dated 2023):
# Columns and labels:
# [1] = system: LPS rat models of Parkinson's disease; test: Pick-up test; format: in vivo; details: group V (LPS+^64Zn-asp) versus group IV (LPS)
# Description: The pick-up test is a test for increased irritability. The animal is picked up by grasping around the body. Responses were scored as 1, very easy; 2, easy with vocalizations; 3, some difficulty, the rat rears and faces the hand; 4, the rat freezes (with or without vocalization); 5, difficult, the rat avoids the hand by moving away; and 6, very difficult, the rat behaves defensively, and may attack the hand.
# On the 1st day of the experiment, rats were either operated to model hemi-parkinsonism or sham operated. From the 9th to the 18th day of the experiment, the animals were injected either deuterium-depleted water or the test substance, according to their allocation into groups, for 10 days. […] On the 24th day of the experiment, behavioral tests were carried out in all groups.
# peritoneal macrophages = test: Metabolic profile of nonsensitized mouse peritoneal macrophages in vitro; format: cell-based, mice of c57/B6 line; parameters: spontaneous production of reactive nitrogen species by PM: dose or concentration left out as unconfirmed
# Description: Materials and methods: Peritoneal macrophages (PM) were isolated from the peritoneal cavity of male mice of c57/B6 line with an average body weight of 22 g without previous sensibilization. The metabolic profile of phagocytes was characterized by the arginine metabolic pathway (by the levels of arginase activity and NO synthesis measured using photocolorimetric methods), the level of formation of intracellular reactive oxygen species (ROS) by esterases and phagocytic activity measured using flow cytometry as well as the levels of NADH and NADPH oxidase activation, as determined in the NBT test. Duration of treatment of a standardized suspension of nonsensitized macrophages from the peritoneal cavity varied depending on the methodological characteristics of metabolic response. A 90 minute exposure to the drugs according to Kim D K, Pfeifer J. Surg Forum. 1977; 28:85-7 was used to analyze their effects on oxidative metabolism and phagocytic activity. An 18 hour exposure according to Lastra M D, et al., J Trace Elem Med Biol. 2001; 15(1):5-10 was used to analyze the effects on arginine metabolic pathway. To analyze the effects of the drugs under study on the induced (stimulated) metabolic activity of phagocytes, the cells were treated with lipopolysaccharide (LPS) from E. coli (Sigma, USA) according to Haddad J J. Mol Immunol. 2009; 47(2-3):205-14. doi: 10.1016/j.molimm.2009.09.034.
# circulating leukocytes = test: Blood count values in LPS rat models; format: in vivo; details: day 28
# Description: (§1) On the 1st day of the experiment, rats were either operated to model hemi-parkinsonism or sham operated. From the 9th to the 18th day of the experiment, the animals were injected either deuterium-depleted water or the test substance, according to their allocation into groups, for 10 days. On the 8th day of the experiment (before initiation of treatment—apomorphine test I) and on the 21st day of the experiment (after the end of administering the test substance —apomorphine test II) the animals underwent an apomorphine test to analyze the development of hemi-parkinsonism which correlates with the number of destroyed dopaminergic neurons. In addition, a follow-up analysis of fecal water content was carried out, i.e., before the start of treatment on the 8th day after the operation, as well as on the 21st (after the end of treatment) and the 28th day (before autopsy). On the 24th day of the experiment, behavioral tests were carried out in all groups. All animals were weighed before autopsy. […]
# The blood count values were analyzed at the completion of the experiment (day 28). The absolute number of leukocytes, as well as the absolute and relative numbers of lymphocytes, monocytes and neutrophilic granulocytes were calculated.
# [2] = system: circulating monocytes and granulocytes; test: Functional and phenotypic properties of circulating phagocytes in LPS rat models; format: in vivo; details: animal models of PD
# Description: as §1
# To assess the anti-inflammatory and immunomodulating effects of the test substance, microglia and peritoneal macrophages were isolated. Phenotypic and functional features of peripheral blood phagocytes were evaluated without their fractioning (using whole blood). […]
# Phagocytic activity of microglia, peritoneal macrophages and peripheral blood phagocytes was analyzed on a flow cytometer using FITC-labeled S. aureus Wood 46 cells as an object of phagocytosis. […]
# Oxidative metabolism of phagocytes of various localization was analyzed by flow cytometry using the cell-permeant 2′7′-dichlorodihydrofluorescein-diacetate (DHP) (carboxy-H2DCFDA, Invitrogen, USA) which is converted by intracellular esterases to the nonfluorescent membrane-impermeable carboxy-H2DCF form.
# The phenotypic profile of phagocytes of various localization was characterized by the expression of markers of functional maturity and metabolic polarization (CD206, CD80 and CD86), which was determined by flow cytometry and the use of monoclonal antibodies of appropriate specificity marked with fluorescent dyes (Abcam, Becton Dickinson).
substance,measurement,setting,value
^64Zn-enriched zinc aspartate [^64Zne-asp],irritation in the pick-up test,[1],statistically significant elevation
same,ROS generation compared with LPS treatment,"peritoneal macrophages; 10 μg/ml, 90 min",more expressive stimulation
same,NO synthesis by bacterial LPS-stimulated PM,peritoneal macrophages; 18-hour exposure,statistically significant reduction
same,spontaneous production of reactive nitrogen species by PM,peritoneal macrophages; 18-hour exposure,statistically significant inhibition
same,arginase activity of PM,peritoneal macrophages; 18-hour treatment,multidirectional weak effect
same,phagocytic activity of nonsensitized PM,peritoneal macrophages; 90 min exposure,did not have a significant effect
same,spontaneous and LPS-stimulated ROS production by macrophages,peritoneal macrophages; 90 min treatment,moderate stimulating effect
same,spontaneous or induced activation of NADH and NADPH oxidases (NBT test),peritoneal macrophages; 90 min treatment,did not have a statistically significant effect
same,absolute number of circulating leukocytes,circulating leukocytes,did not influence
same,"expression levels of all three markers (CD206, CD80, CD86) by circulating phagocytes",[2],increase
same,functional reserve of oxidative metabolism of circulating phagocytes,[2],restore
same,oxidative metabolism of circulating phagocytes of both populations,[2],sharply reduced
